The values that follow come from patent US20260159474A1, “Aminoindane Compounds and Compositions and Methods of Their Therapeutic Use” (Solvonis Therapeutics Ireland Holdings Limited, priority 2021, published 2026).

Data set [1] relates to 5-HT release in rat synaptosomes. Briefly: Serotonin release assay in rat cortex synaptosomes. The format is biochemical. To be noted: for 5-HT Release (pEC50): rat cortex synaptosomes, % of maximal release with 50 μM MDMA, n=2; for SERT/DAT Release Ratio: ratio of 5-HT and DA release potency, rat synaptosomes. The method, then: Methods-Evaluation of Monoamine Release: The potency of therapeutic compounds for stimulating DA release was measured by an endpoint release filtration assay in a 96-well format using rat synaptosomes, essentially as described by Sandtner et al. (Mol Pharmacol., 2016; 89(1):165-75.) and Baumann et al. (Neuropsychopharmacol, 2013; 38:552-562.) with some variations. One male rat was euthanized, and striatum/cortex regions were dissected over ice. The striatum portions were weighed and put in a glass tube containing ice-cold 0.32 M sucrose (dilution 1:24 w/v) for homogenization, while the frontal cortex tissue was diluted in ice-cold 0.32 M sucrose, 1:20 w/v. Tissues were homogenized and centrifuged for 10 mins at 1000×g. The two supernatants from striatum and cortex (crude synaptosomes) were retained on ice until use.
Test compounds were then serially diluted 1:4 in neat DMSO as concentration-response curves (CRC) of 11 points. To each well of a 2-mL 96 deep-well plate (Whatman UNIPLATE 96 well) were added: 2 μL of a concentration-response curve (CRC) of test compounds or 2 μL of DMSO (no-release condition) or 2 μL of MDMA 10 mM solution (final 50 μM, for maximal release), followed by 200 μL/well of complete Krebs-phosphate buffer (126 mM NaCl, 2.4 mM KCl, 0.83 mM CaCl2), 0.8 mM MgCl2, 0.5 mM KH2PO4, 0.5 mM Na2SO4, 11.1 mM glucose, 0.05 mM pargyline, 1 mg/mL ascorbic acid, freshly added, pH 7.4), containing 1 μM reserpine to block vesicular uptake of substrate. Desipramine (100 nM) and citalopram (100 nM) were also added to the release assay buffer in order to inhibit NET and SERT uptake, respectively. The final compound dilution, then, was 1:200 in 0.5% DMSO.
The raw data (cpm) from residual radioactivity onto the filter were elaborated for the determination of pEC50/EC50 values. Specifically, the compound effect was expressed as the percent of maximal release obtained with 50 μM MDMA (100% release) in comparison to vehicle (0.5% DMSO, 0% release). Both MDMA and D-amphetamine in CRC were used as internal controls in each release experiment. In each plate, for both 0% and 100% of release, the signal window was monitored and Z′ calculations were determined using the raw data of four replicates. 5-HT release was calculated in an identical fashion, except that 5 nM 3H-serotonin was added to crude cortex synaptosomes preparation diluted 1:13 (v/v) in complete Krebs-phosphate buffer containing 1 μM Reserpine, 100 nM GBR12909 and 100 nM nomifensine to block vesicular, DAT, and NET uptake, respectively. Synaptosomes were then loaded with 3H-5HT for 60 minutes at RT. After dispensing loaded synaptosomes onto a compound plate (200 μL/well), the release reaction proceeded for an additional 15 minutes. Stop by filtration, counting, and data elaboration were performed as described for DA release. Compounds were tested in duplicate (n=2).

A short description of data set [2]: In vivo pharmacokinetics and brain penetration in rats after IV administration. To be noted: rat; for Kp at 2 h: 2 hours post-administration, read-out: brain to plasma ratio; for Vd: read-out: Vss. The method, then:
Group 1: Therapeutic compounds were administered via the IV route to three rats at a target dose level of 0.5 mg/kg. Blood and brain samples were collected at 2 h after IV administration. Group 2: Therapeutic compounds were administered via the IV route to three rats (brain penetration group) at a target dose level of 0.5 mg/kg. Blood and brain samples were collected at 2 h after IV administration. Group 3: Therapeutic compounds were orally administered to three rats at a target dose level of 1 mg/kg.
All test formulations were prepared on the day of administration prior to dosing, stored at room temperature, and used as soon as possible. Formulations were prepared and administered by volume IV dosing. Actual body weights were determined on the day of dose administration, and the dose volumes were adjusted to the weight of the animal at the time of dose administration.
Blood was collected into K3 EDTA tubes at each of the following time points post-administration:
Group 1 (IV): 0.083, 0.33, 1, 2, 4, 6, 8, and 24 hours after dosing Group 2 (IV): 2 hours after dosing for terminal brain analysis
All blood samples were thoroughly and gently mixed following collection and placed on wet ice. Within 0.5 h of collection, blood was centrifuged (3000 g for 10 minutes at approximately 4° C.). Within 0.5 hours, 20 μL of each plasma sample was transferred into micronic tubes containing 80 μL of 0.1N Hepes buffer (pH 7.0-7.5). Residual plasma was transferred in micronic tubes as a second aliquot.
Brain specimens were diluted with 4 volumes of 0.1 N Hepes buffer and homogenized using the Precellys system. Blood and brain samples were assayed using an optimized method based on protein precipitation with acetonitrile followed by HPLC/MS-MS analysis. Given the unknown stability of the analytes in blood and brain, calibration standards (CS) and quality control samples (QC) were prepared in blood and brain samples on the day of dosing and stored together with study samples. It is assumed that this procedure accounted for any possible analyte degradation.
Study samples, CS, QC, and blanks were spiked with an internal standard (IS), to improve the precision of the assay. Study samples were analyzed together with CS, QC and blank samples (including double blanks). From the calibration curve, the linear range of the analytical method was determined and the lower/upper limits of quantitation were specified.
The results of blood and brain specimens were subjected to non-compartmental pharmacokinetic analysis using Phoenix WinNonlin 6.3, with the following parameters reported: Calculated concentration of test items in the corresponding formulation (expressed as mg/mL), dose levels (expressed as mg/kg) for each compound, actual collection times (expressed as hh: mM), blood concentrations (expressed as ng/ml) for each compound, brain concentrations (expressed as ng/g) for each compound, PK parameters (iv: Cmax, AUC, CLp, Vss, t1/2, if applicable; oral (PO): Cmax, tmax, AUC, F %, Fa %, Eh, AUC BB ratio, if applicable) for each compound, and abnormal clinical signs and relevant findings, if any.

Where [3] appears, read: brain and plasma, 0.5 mg/kg, IV.
The mark [4] stands for this setting: plasma, IV, 0.5 mg/kg, read-out: Clearance.
The mark [5] stands for this setting: plasma, IV, 0.5 mg/kg, read-out: Cmax.

Where two headings read alike, the source gives them in different places.

In the case of `COc1ccc2c(c1)CC(N)C2` (stereo not drawn) [MEAI, 5-methoxy-2-aminoindane], in data set [1], the “5-HT Release (pEC50)” value turned out to be 6.8 and the “SERT/DAT Release Ratio” value turned out to be 28. Also, in data set [2] (setting [3]), the Kp at 2 h came to 2.21. The same molecule came in with a Kp uu at 2 h in data set [2] (brain and plasma, intravenous, 0.5 mg/kg, assuming free plasma concentration equals total plasma concentration) of 0.71. Further, in data set [2] (plasma, IV, 0.5 mg/kg), the AUC(0-inf) – broadly, the area under the concentration-time curve extrapolated to infinity – amounted to 0.788 µg·h/mL; the AUC(0-t) – broadly, the area under the concentration-time curve up to a stated or last time point – stood at 0.773 µg·h/mL; the half-life (as a rule, how long it takes for the measured level to halve) is 29.6 min; the Vd is 0.376 L/kg. Besides, the clearance – broadly, the rate of elimination divided by the concentration – in data set [2] (setting [4]) amounted to 0.636 L/h/kg. In addition, the Cmax – broadly, the highest concentration seen after dosing – in data set [2] (setting [5]) came out at 1.4 µg/mL. Further, in data set [2] (IV, 0.5 mg/kg), the “Clast” value turned out to be 0.0247 µg/mL and the “Tlast” value is 3 h.

`COC(=O)COc1ccc2c(c1)CC(N)C2` (stereo not drawn) [CMP-402]: in data set [1], the “5-HT Release (pEC50)” value is listed as 5.0 and the “SERT/DAT Release Ratio” value is reported as over 10.

On to `CNC(C)Cc1ccc2c(c1)OCO2` (stereo not drawn) [MDMA], for which, in data set [1], the “5-HT Release (pEC50)” value was 7.0 and the “SERT/DAT Release Ratio” value was 2.6. In data set [2] (IV, 1 mg/kg), the “AUCinf” value is 0.384 µg·h/mL, the “AUClast” value was found to be 0.367 µg·h/mL, the “Clast” value was determined as 0.0121 µg/mL and the “Cmax” value is 0.625 µg/mL. In addition, in data set [2] (IV, 1 mg/kg), the “T1/2” value is 57.2 min; the “Tlast” value turned out to be 4 h; the Vss – broadly, the apparent volume that relates the amount in the body to the concentration in plasma or blood – amounted to 3.02 L/kg; the “clearance” value was 2.74 L/h/kg.

For the molecule `COC(=O)c1cc2c(cc1OC)CC(N)C2` (stereo not drawn) [CMP-401], in data set [1], the “5-HT Release (pEC50)” value is listed as 5.5 and the “SERT/DAT Release Ratio” value was over 35.

Take `COc1cc2c(cc1C)CC(N)C2` (stereo not drawn) [MMAI, 5-methoxy-6-methyl-2-aminoindane]: in data set [1], the “5-HT Release (pEC50)” value was 7.4 and the “SERT/DAT Release Ratio” value is 575.

As to `COC(=O)c1ccc2c(c1)CC(N)C2` (stereo not drawn) [CMP-405, 2-aminoindane-5-methylcarboxylate], in data set [1], the “5-HT Release (pEC50)” value is given as 6.1 and the “SERT/DAT Release Ratio” value was determined as 3.2. In addition, the Kp at 2 h in data set [2] (setting [3]) is 2.12. For the same molecule, in data set [2] (plasma, IV, 0.5 mg/kg), the AUC(0-inf) is 0.334 µg·h/mL, the AUC(0-t) stood at 0.33 µg·h/mL, the half-life was 19.8 min and the Vd came out at 0.602 L/kg. In addition, the clearance in data set [2] (setting [4]) was 1.53 L/h/kg. Moreover, the Cmax in data set [2] (setting [5]) worked out at 0.808 µg/mL. In data set [2] (IV, 0.5 mg/kg), the “Clast” value stood at 0.00808 µg/mL and the “Tlast” value came out at 2 h.
